Common to all, as to assay: NCI-60 cell line screen, 48 h
Assay [1] concerns SF-539.
Assay [2] deals with HT-29.
Assay [3] deals with SF-268.
The subject of assay [4] is SK-OV-3.
Assay [5] has as its system NCI-H226.
The subject of assay [6] is RPMI-8226.
In assay [7] the test system is SK-MEL-5.
In assay [8] the test system is Malme-3M.
Assay [9] deals with HCT-15.
Assay [10] has as its system SF-295.
In assay [11] the test system is EKVX.
The test system of assay [12] is SNB-75.
Assay [13] has as its system NCI-H460.
Assay [14] has as its system A549.
In assay [15] the test system is OVCAR-8.
Assay [16] relates to OVCAR-4.

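Protocol summary: plate cells (96-well), add compound at 5 concentrations, incubate 48 h, interpolate endpoints linearly. GI50 = concentration required for 50% inhibition of growth.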 The source made the active and inactive calls. Cut-off read from the data, not from the text of the source: active = GI50 up to about 1.1 µM and inactive = higher. Some results are limits rather than exact numbers.

Take `COc1ccc(C(=O)Nc2ccccc2)cc1[N+](=O)[O-]`: the GI50 was > 100 µM (inactive) in assay [1]; 70.3 µM (inactive) in assay [2]; > 100 µM (inactive) in assay [3]; > 100 µM (inactive) in assay [4]; > 100 µM (inactive) in assay [5]; > 100 µM (inactive) in assay [6]. Moreover, the GI50 in [7] was 31.5 µM (inactive); in assay [8] it was > 100 µM (inactive); in assay [9], over 100 µM; in [10] it was > 100 µM (inactive); in assay [11], 46.6 µM (inactive); in [12] it was 59.7 µM (inactive). The GI50 in [13], in assay [14] and in assay [15] was > 100 µM (inactive) in each case.

Consider `Cc1cc(O)cc2c1O[C@@]1(C)CCC3[C@@]4(C)CC[C@H](O)C(C)(C)C4CC[C@@]3(C)[C@H]1C2` (stereo not given in full), for which the GI50 is 2.23 µM (inactive) in assay [1]; 13.3 µM (inactive) in assay [2]; 3.4 µM (inactive) in [4]; 10.7 µM (inactive) in assay [5]; 2.18 µM (inactive) in assay [6]; 5.61 µM (inactive) in assay [7]. The GI50 is 9.06 µM (inactive) in assay [8]; 3.03 µM in assay [9]; 2.35 µM (inactive) in assay [10]; 12.6 µM (inactive) in [11]; 3.03 µM (inactive) in assay [12]; 4.41 µM (inactive) in assay [13]. The figures for the GI50 in assay [14] and in assay [15] were 5.15 µM (inactive) and 8.45 µM (inactive), respectively.

Turning to `O=C(c1cccc2ccccc12)N1CCC(C2CCN(C(=O)c3cccc4ccccc34)CC2)CC1`, the GI50 in assay [1] is > 100 µM (inactive); in assay [2], > 100 µM (inactive); in [3], > 100 µM (inactive); in assay [4], > 100 µM (inactive); in assay [5], > 100 µM (inactive); in assay [6] it was 91.8 µM (inactive). For the same molecule, the GI50 in assay [7] was > 100 µM (inactive); in assay [8] it was > 100 µM (inactive); in [9], over 100 µM; in assay [10], > 100 µM (inactive); in assay [11], > 100 µM (inactive); in assay [12] it was 23.8 µM (inactive). The GI50 in assay [13], in [14] and in assay [15] was > 100 µM (inactive) each time.

`COC(=O)CC1C(=O)OCc2c1cc1n(c2=O)Cc2c-1nc1ccccc1c2OC` (stereo not given): the GI50 is > 100 µM (inactive) in assay [2]; 19.3 µM (inactive) in assay [3]; 54.5 µM (inactive) in assay [4]; > 100 µM (inactive) in assay [6]; > 100 µM (inactive) in assay [16]; 61.1 µM (inactive) in assay [7]. Moreover, the GI50 in [8] was > 100 µM (inactive); in assay [9], over 100 µM; in assay [11], > 100 µM (inactive); in assay [12], 6.53 µM (inactive); in assay [13] it was 4.16 µM (inactive); in assay [14], 59.8 µM (inactive). Moreover, in [15], the GI50 was > 100 µM (inactive).

As for `N#CSCc1nc2ccc(Cl)cc2c(-c2ccccc2)[n+]1[O-]`, the GI50 was > 10 µM (inactive) in assay [1]; 20 µM (inactive) in [2]; 25.7 µM (inactive) in assay [3]; 33.7 µM (inactive) in [5]; 25.3 µM (inactive) in assay [6]; 25.5 µM (inactive) in assay [16]. For the same molecule, the GI50 in assay [8] is 24.6 µM (inactive); in assay [9], 17.3 µM; in assay [10], 35.2 µM (inactive); in assay [11] it was 23.2 µM (inactive); in [12], 32.7 µM (inactive); in assay [13] it was 40.3 µM (inactive). Moreover, the GI50 in assay [14] was 33.8 µM (inactive); in assay [15], 19.7 µM (inactive).

As for `O=C1CC(O)C=C1Nc1ccc(Cl)cc1` (stereo not given), the GI50 is 61.7 µM (inactive) in [1]; 13.7 µM (inactive) in assay [2]; 62.4 µM (inactive) in [3]; > 100 µM (inactive) in [4]; > 100 µM (inactive) in [5]; 60.1 µM (inactive) in assay [16]. Further, the GI50 is 30.5 µM (inactive) in assay [7]; 59.8 µM (inactive) in [8]; 33.1 µM (inactive) in assay [10]; 27.7 µM (inactive) in assay [11]; 26.5 µM (inactive) in assay [12]; 23.1 µM (inactive) in assay [13]. The GI50 in [14] was 5.81 µM (inactive); in assay [15], 49.2 µM (inactive).

For `O=C(CC1(O)C(=O)Nc2ccccc21)c1ccncc1` (stereo not given), the GI50 in assay [1], in assay [2], in assay [3], in assay [4], in assay [5] and in assay [6] was > 100 µM (inactive) each time. Besides, the GI50 in assay [16] is > 100 µM (inactive); in [7] it was > 100 µM (inactive); in assay [9] it was over 100 µM; in assay [10], > 100 µM (inactive); in [11], > 100 µM (inactive); in [12], > 100 µM (inactive). Besides, the GI50 in assay [13] and in assay [14] was > 100 µM (inactive) each time.

For `COC(=O)CC(=O)OC`, the GI50 in assay [1], in assay [2], in assay [3], in assay [4], in assay [6] and in [16] was > 100 µM (inactive) throughout. For the same molecule, the GI50 was > 100 µM (inactive) in [7]; > 100 µM (inactive) in assay [8]; over 100 µM in assay [9]; > 100 µM (inactive) in assay [10]; > 100 µM (inactive) in [11]; > 100 µM (inactive) in assay [12]. Also, the GI50 in assay [13], in [14] and in assay [15] was > 100 µM (inactive) each time.

In the case of `Cc1ccc(/C=C/C(=O)c2cccc3ccccc23)cc1`, the GI50 in assay [2] is 18.2 µM (inactive); in assay [3], 16.2 µM (inactive); in [4], 24.4 µM (inactive); in assay [5] it was 17.8 µM (inactive); in assay [6], 2.49 µM (inactive); in [16] it was 13.4 µM (inactive). In addition, the GI50 is > 10 µM (inactive) in [7]; 15.3 µM (inactive) in [8]; 19.1 µM in assay [9]; 17.7 µM (inactive) in [10]; 17.8 µM (inactive) in [11]; 19.1 µM (inactive) in [12]. Also, the GI50 in [13] was 15.2 µM (inactive); in [14], 16.7 µM (inactive); in assay [15], 14.5 µM (inactive).

Consider `O=C1NC2C3CC(OCc4ccccc4)(OCc4ccccc4)C2OC3O1` (stereo not given), for which the GI50 in assay [1], in [2], in assay [3], in assay [4], in assay [5] and in assay [6] was > 50 µM (inactive) in each case. Besides, the GI50 in [16] was < 0.005 µM (active); in assay [7], > 50 µM (inactive); in assay [8] it was > 50 µM (inactive); in [9], over 50 µM; in assay [10] it was > 50 µM (inactive); in assay [12] it was 48.6 µM (inactive). The GI50 in assay [14] is > 50 µM (inactive).

On to `O=C1[C@@H]2C(c3cccc([N+](=O)[O-])c3)=NO[C@@H]2C(=O)N1c1ccc(Cc2ccc(N3C(=O)[C@H]4C(c5cccc([N+](=O)[O-])c5)=NO[C@H]4C3=O)cc2)cc1`, for which the GI50 in assay [1] was 35.9 µM (inactive); in assay [2], > 100 µM (inactive); in assay [3] it was > 10 µM (inactive); in [4], > 10 µM (inactive); in assay [6], > 100 µM (inactive); in [16] it was > 100 µM (inactive). For the same molecule, the GI50 in assay [8] is > 100 µM (inactive); in assay [9], over 100 µM; in assay [12], > 100 µM (inactive); in assay [13] it was > 100 µM (inactive); in assay [15], > 10 µM (inactive).

As to `Cc1ccc(S(=O)(=O)N/N=C2\CCCCC23CCC(=O)NC3)cc1` (stereo not given), the GI50 in assay [1], in [3], in assay [4], in assay [5], in [6] and in assay [16] was > 100 µM (inactive) throughout. Moreover, the GI50 was > 100 µM (inactive) in [7]; > 100 µM (inactive) in assay [8]; over 100 µM in [9]; > 100 µM (inactive) in assay [12]; > 100 µM (inactive) in assay [13]; > 100 µM (inactive) in assay [14]. In [15], the GI50 is > 100 µM (inactive).

As for `COc1ccc(C2=NC(CO)[C@H](c3ccccc3)O2)cc1OC` (stereo not given in full), the GI50 in assay [1] is > 100 µM (inactive); in assay [2], > 100 µM (inactive); in [3], > 100 µM (inactive); in assay [4], 96.4 µM (inactive); in [5], > 100 µM (inactive); in assay [16], > 100 µM (inactive). Also, the GI50 is > 100 µM (inactive) in assay [7]; > 100 µM (inactive) in [8]; over 100 µM in assay [9]; > 100 µM (inactive) in [10]; > 100 µM (inactive) in [12]; > 100 µM (inactive) in [13]. Besides, the GI50 in assay [14] and in [15] was > 100 µM (inactive) throughout.

`CC1(C)C(=NNC(=O)C[N+](C)(C)C)C(C)(C)C1=NNC(=O)C[N+](C)(C)C`: the GI50 in [1], in assay [2], in assay [3], in [4], in assay [5] and in assay [16] was > 100 µM (inactive) each time. The GI50 in [7] is > 100 µM (inactive); in assay [8], > 100 µM (inactive); in assay [9] it was over 100 µM; in assay [10] it was > 100 µM (inactive); in assay [11], > 100 µM (inactive); in assay [12], > 100 µM (inactive). The GI50 in assay [13], in assay [14] and in assay [15] was > 100 µM (inactive) in each case.

The values are drawn from ChEMBL document CHEMBL1201862, “PubChem BioAssay data set” (2004).
